Assay results published in ChEMBL document CHEMBL1201862, “PubChem BioAssay data set” (2004).
Active and inactive are the calls of the source.

Experiments:
Cytochrome P450 1A2 = molecular target: T1, Cytochrome P450 1A2 (Homo sapiens, UniProt P05177);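 also: PubChem cytochrome P450 panel assay, CYP1A2 panel member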
T1 sequence (P05177 whole entry): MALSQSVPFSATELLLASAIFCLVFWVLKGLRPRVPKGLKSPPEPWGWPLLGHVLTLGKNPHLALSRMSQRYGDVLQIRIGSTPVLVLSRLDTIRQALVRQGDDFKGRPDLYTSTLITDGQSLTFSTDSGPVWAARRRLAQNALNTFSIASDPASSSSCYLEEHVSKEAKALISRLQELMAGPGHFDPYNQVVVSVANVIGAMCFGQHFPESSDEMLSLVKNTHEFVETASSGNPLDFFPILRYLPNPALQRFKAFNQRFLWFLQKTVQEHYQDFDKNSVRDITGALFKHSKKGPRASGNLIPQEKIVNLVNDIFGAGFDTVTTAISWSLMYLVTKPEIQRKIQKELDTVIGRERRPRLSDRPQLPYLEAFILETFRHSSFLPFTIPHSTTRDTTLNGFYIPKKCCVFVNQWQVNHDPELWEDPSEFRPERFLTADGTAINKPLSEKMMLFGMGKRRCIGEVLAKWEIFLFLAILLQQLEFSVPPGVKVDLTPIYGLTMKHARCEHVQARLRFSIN

[1] = molecular target: T2, Corticotropin-releasing factor receptor 2/Corticotropin-releasing factor-binding protein (Homo sapiens, UniProt P24387+Q13324); assay: Dose Response confirmation of uHTS hits for small molecule antagonists of the CRF-binding protein and CRF-R2 receptor complex.; type: functional; details: read-out: IC50_Mean
T2 sequence (Q13324 whole entry): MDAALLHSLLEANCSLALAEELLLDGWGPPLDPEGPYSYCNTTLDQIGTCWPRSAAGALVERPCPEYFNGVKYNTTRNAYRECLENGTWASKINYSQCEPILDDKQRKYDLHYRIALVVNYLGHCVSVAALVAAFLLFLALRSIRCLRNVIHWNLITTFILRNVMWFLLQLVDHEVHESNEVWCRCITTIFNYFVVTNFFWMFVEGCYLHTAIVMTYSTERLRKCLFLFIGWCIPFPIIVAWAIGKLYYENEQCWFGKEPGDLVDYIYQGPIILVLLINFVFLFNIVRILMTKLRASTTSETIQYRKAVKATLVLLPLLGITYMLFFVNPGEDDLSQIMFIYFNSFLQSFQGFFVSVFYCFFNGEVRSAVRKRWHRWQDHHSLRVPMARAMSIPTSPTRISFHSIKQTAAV
T2 sequence (P24387 whole entry): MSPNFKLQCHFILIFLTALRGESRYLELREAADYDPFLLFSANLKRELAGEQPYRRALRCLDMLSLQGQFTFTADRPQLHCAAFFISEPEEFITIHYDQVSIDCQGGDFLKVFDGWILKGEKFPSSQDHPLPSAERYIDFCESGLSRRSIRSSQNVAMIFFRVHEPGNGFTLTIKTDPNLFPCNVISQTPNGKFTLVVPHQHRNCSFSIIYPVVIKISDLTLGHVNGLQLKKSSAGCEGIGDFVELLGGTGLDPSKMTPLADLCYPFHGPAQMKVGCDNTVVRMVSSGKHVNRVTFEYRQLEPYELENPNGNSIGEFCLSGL

[2] = molecular target: T2, Corticotropin-releasing factor receptor 2/Corticotropin-releasing factor-binding protein; assay: activators of CRF receptor 2 with binding protein – uHTS hits, confirmation (AID 602473); type: functional; details: read-out: EC50_Mean
[3] = inhibitors of intracellular T. cruzi replication, confirmation, NIH3T3 host cells, beta-gal luminescence (AID 2044); type: functional, cell-based;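 also: intracellular parasites grown in NIH/3T3 mouse fibroblasts as host cells; luminescent beta-galactosidase reporter signal from transgenic T. cruzi replicating inside host cells; inhibitors lower the luminescence signal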
[4] = NIH-3T3 fibroblast cytotoxicity, dose response, cytotoxicity control, cell-based, fluorescence, Alamar Blue, secondary assay (AID 2327); type: functional;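 also: NIH-3T3 mouse fibroblasts cultured with fluconazole at 8 µg/mL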
[5] = C. albicans growth with fluconazole, confirmation, fluorescence, retest (AID 2467); type: functional, cell-based
[6] = cytotoxicity toward NIH3T3 fibroblasts, dose response, counter-screen, cell-based, ATP luminescence, mouse fibroblasts (AID 2010); type: functional;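 also: cells exposed to compound for about 90 hours before reading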
Cytochrome P450 2C9 = Cytochrome P450 2C9 (Homo sapiens, UniProt P11712)
H4 = assay: Luminescence Cell-Based Dose Response HTS to Identify Activators of 5'UTR Stem-Loop Driven Prion Protein mRNA Translation in H4 Neuroglioblastoma Cells. [Related pubchem assays: 1829 (Project Summary), 1814 (Primary HTS)]; type: functional; details: Homo sapiens
[7] = molecular target: T3, Rac GTPase-activating protein 1 (Homo sapiens, UniProt Q9H0H5); assay: MgcRacGAP GTPase-activating activity inhibitors, confirmation, biochemical, ADP Hunter fluorescence, primary and confirmatory (AID 624330); type: functional
T3 sequence (Q9H0H5 whole entry): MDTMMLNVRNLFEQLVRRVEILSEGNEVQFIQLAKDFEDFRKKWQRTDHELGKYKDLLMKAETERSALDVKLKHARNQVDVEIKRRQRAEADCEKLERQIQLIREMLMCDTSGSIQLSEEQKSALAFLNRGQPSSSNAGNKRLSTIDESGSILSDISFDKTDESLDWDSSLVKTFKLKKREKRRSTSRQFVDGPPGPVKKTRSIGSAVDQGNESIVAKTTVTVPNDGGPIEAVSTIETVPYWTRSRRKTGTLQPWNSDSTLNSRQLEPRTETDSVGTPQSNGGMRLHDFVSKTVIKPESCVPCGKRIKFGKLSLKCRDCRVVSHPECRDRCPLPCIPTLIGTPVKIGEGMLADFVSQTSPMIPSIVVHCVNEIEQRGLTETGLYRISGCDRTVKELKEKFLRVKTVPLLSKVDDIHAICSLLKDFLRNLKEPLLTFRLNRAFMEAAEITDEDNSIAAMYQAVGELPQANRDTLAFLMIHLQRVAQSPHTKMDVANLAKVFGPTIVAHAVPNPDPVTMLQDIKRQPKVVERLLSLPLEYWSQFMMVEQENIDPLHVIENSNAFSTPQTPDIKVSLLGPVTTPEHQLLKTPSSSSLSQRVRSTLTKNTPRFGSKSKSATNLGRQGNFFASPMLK

[8] = Luminescence Cell-Based Dose Retest to Confirm Inhibitors of Cancer Stem Cells. [Related pubchem assays (depositor defined):AID2717, AID2721]; type: functional; details: Homo sapiens
Streptococcus = assay: Group A Streptococcus viability loss, dose response, counter-screen for streptokinase expression inhibitor project, luminescence, BacTiterGlo (AID 1915); type: functional, organism-based;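 also: potency for reduction of bacterial viability or growth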
[9] = test system: Streptococcus sp. 'group A'; assay: growth inhibition of control SK(-) GAS strain, dose response, counter-screen for streptokinase expression inhibitor project, luminescence, kanamycin, BacTiterGlo, confirmation (AID 1900); type: functional, organism-based
INS1 = assay: beta cell apoptosis inhibitors, cytokine rescue, dose response, luminescence, retest (AID 449756); type: functional, cell-based; details: Rattus norvegicus;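 also: cell death triggered by IL-1 beta plus TNF-alpha plus IFN-gamma mixture; protective hits raise ATP signal compared with cytokine alone wells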
[10] = P. falciparum Dd2 growth inhibitors, dose response, SYBR Green, cherry-picked samples (AID 1159567); type: functional, cell-based

Cytochrome P450 2C9, sequence (P11712 whole entry): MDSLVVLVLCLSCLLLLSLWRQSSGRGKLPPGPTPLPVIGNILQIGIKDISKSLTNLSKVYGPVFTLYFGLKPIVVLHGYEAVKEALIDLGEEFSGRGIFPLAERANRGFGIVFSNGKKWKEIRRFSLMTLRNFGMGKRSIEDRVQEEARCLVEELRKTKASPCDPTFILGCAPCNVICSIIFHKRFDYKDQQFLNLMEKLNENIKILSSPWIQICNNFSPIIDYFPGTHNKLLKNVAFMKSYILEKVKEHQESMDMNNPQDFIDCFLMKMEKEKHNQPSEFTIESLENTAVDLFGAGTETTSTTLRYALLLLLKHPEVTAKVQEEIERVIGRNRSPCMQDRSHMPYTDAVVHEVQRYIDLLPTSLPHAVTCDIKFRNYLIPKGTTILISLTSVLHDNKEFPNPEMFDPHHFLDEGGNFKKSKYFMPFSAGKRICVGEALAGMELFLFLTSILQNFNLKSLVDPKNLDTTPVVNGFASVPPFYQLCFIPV

CCCNC(=N)NCCC[C@H](N)C(=O)O
AC50 (Cytochrome P450 1A2): 31.6 µM (inconclusive)

CCOc1ccc(C(CCc2ccccc2)NC(=O)c2ccccc2OC)cc1OCC (stereo not given)
IC50 [1]: > 47.1 µM (inactive) | EC50 [2]: > 53 µM (inactive)

O=C(NNC(=O)c1ccccc1C(=O)O)c1ccc(O)cc1
IC50 [1]: > 47.1 µM (inactive) | EC50 [2]: > 53 µM (inactive)

CS(=O)(=O)Oc1ccc(Br)c2cccnc12
IC50 [1]: > 47.1 µM (inactive) | EC50 [2]: > 53 µM (inactive)

Cc1c(C(=O)O)sc(S(=O)(=O)N2CCN(C(=O)Cc3ccc(F)cc3)CC2)c1C(=O)O
IC50 [1]: > 47.1 µM (inactive) | EC50 [2]: > 53 µM (inactive)

c1ccc(COc2ccccc2CNC23CC4CC(CC(C4)C2)C3)cc1
EC50 [3]: 2.36 µM (active) | EC50 [4]: > 160 µM (inactive) | EC50 [5]: > 38 µM (not active) | EC50 [6]: > 60 µM (not active)

CCOC(=O)c1c(NC(=O)Cn2nc([N+](=O)[O-])c(Br)c2C)sc2c1CCC(C)C2 (stereo not given)
AC50 (Cytochrome P450 2C9): 3.55 µM (inconclusive) | AC50 (Cytochrome P450 1A2): 2.82 µM (inconclusive)

COc1ccc(C(=O)N2CCC3(CC2)CN(C(=O)Nc2ccccc2)C3)cc1
AC50 (Cytochrome P450 1A2): 25.1 µM (inconclusive)

COc1ccc(/C=C2\CCn3c2nc2ccccc2c3=O)cc1OC
EC50 (H4): 1.08 µM (active)

O=C(C1CCN(S(=O)(=O)c2cccc3nsnc23)CC1)N1CCCc2ccccc21
AC50 (Cytochrome P450 2C9): 39.8 µM (inconclusive) | AC50 (Cytochrome P450 1A2): 10 µM (inconclusive)

Cc1ccc(S(=O)(=O)c2nc(S(C)(=O)=O)sc2N2CCOCC2)cc1
IC50 [1]: > 47.1 µM (inactive) | EC50 [2]: > 53 µM (inactive)

O=C(CCCOc1ccc(Cl)cc1)Nc1cccc(C(=O)O)c1
IC50 [1]: > 47.1 µM (inactive) | EC50 [2]: > 53 µM (inactive)

COc1ccc(CN2CCN(Cc3ccccc3OC)CC2)cc1
IC50 [7]: 74.7 µM (active)

Cc1noc(C)c1S(=O)(=O)N1CCC(C(=O)N2CCN(c3ccc(Cl)cc3)CC2)CC1
IC50 [1]: > 47.1 µM (inactive) | EC50 [2]: > 53 µM (inactive)

c1cc2c(cc1CNc1ccc(N3CCOCC3)cc1)OCO2
IC50 [7]: 6.57 µM (active)

CCN(CC)c1ccc(N2C(=O)/C(=C/c3cccnc3)SC2=S)cc1
AC50 (Cytochrome P450 1A2): 6.31 µM (inconclusive)

CCCc1ccc(C(=O)NNc2ccc(F)cc2)cc1
AC50 [8]: 1.03 µM (active) | EC50 [4]: 13 µM (inconclusive) | EC50 [5]: > 38 µM (not active)

CN(C)c1ccc(/C=C2/C(=O)NC(=O)N(Cc3ccco3)C2=O)cc1
IC50 [7]: 142 µM (active)

O=C1N=C(N2CCOCC2)S/C1=C1\C(=O)N(Cc2ccccc2)c2ccccc21
EC50 (H4): 45 µM (inconclusive)

O=C(O)C[C@@H](C(=O)O)c1ccccc1[N+](=O)[O-]
AC50 (Cytochrome P450 1A2): 0.794 µM (inconclusive)

CC(C)NC1=NN=C(c2ccc(Cl)c(Cl)c2)CS1
EC50 (H4): 0.597 µM (active)

CC1CCCC(N2CCN(C(=O)c3ccc([N+](=O)[O-])cc3)CC2)C1 (stereo not given)
IC50 [7]: 167 µM (active)

COc1ccc(C(=O)N2CCC[C@@]3(CCN(c4cccc(-c5ccccc5)c4)C3)C2)cc1
AC50 (Cytochrome P450 1A2): 12.6 µM (inconclusive)

COc1ccc(C#Cc2c(-c3ccccc3)n(-c3ccccc3)c3ccc(CO)cc23)cc1
IC50 [1]: > 47.1 µM (inactive) | EC50 [2]: > 53 µM (inactive)

COc1ccc(NC(=O)CSc2nnc(C3CC3)n2N)cc1
AC50 (Cytochrome P450 2C9): 28.2 µM (inconclusive) | AC50 (Cytochrome P450 1A2): 39.8 µM (inconclusive)

CCN1C(=O)CC2CCCC1C2 (stereo not given)
IC50 [1]: > 47.1 µM (inactive) | EC50 [2]: > 53 µM (inactive)

CCN(CC)c1ccc(/C=N/NC(=O)OC)c(O)c1
IC50 [7]: 66 µM (active)

COc1cc(OC)c2cc(C(=O)N/N=C/c3ccccc3O)[nH]c2c1
EC50 (Streptococcus): 7.68 µM (active) | EC50 [9]: 0.781 µM (active) | EC50 [4]: 23.1 µM (active) | AC50 (INS1): 3.06 µM (active) | EC50 [5]: 1.47 µM (active)

COc1cc(C=C2CN(C)C(=O)C2=O)ccc1O
IC50 [7]: 19.6 µM (active)

O=C(N/N=C/c1ccc(O)c2ccccc12)c1cccnc1
IC50 [7]: 127 µM (active)

CO[C@H]1CN(C)C(=O)c2cc(NC(=O)c3nc4ccccc4s3)ccc2OC[C@@H](C)NC[C@@H]1C
AC50 [10]: 7.49 µM (active)

COc1cccc(C#Cc2ccc([C@H]3[C@@H](C#N)N(C(=O)C4CCCC4)[C@@H]3CO)cc2)c1
AC50 [10]: 5.62 µM (active)

COc1cccc(-c2ccc3c(c2)[C@H]2[C@H](CCN2C(=O)C2CCCC2)[C@@H](CO)N3)c1
AC50 [10]: 6.77 µM (active)

CCC(=O)N1CC2(C1)[C@@H](c1ccc(-c3cccc(OC)c3)cc1)[C@@H](CO)N2C(C)=O
AC50 [10]: 22.2 µM (active)

COc1ccc(S(=O)(=O)N(C)C[C@@H]2OCc3ccccc3-c3c(n(C)c4ccccc34)C(=O)N([C@H](C)CO)C[C@H]2C)cc1
AC50 [10]: 4.65 µM (active)

Cc1ccc(-c2ccc3c(c2)O[C@@H](CN(C)Cc2cccnc2)[C@@H](C)CN([C@@H](C)CO)S3(=O)=O)cc1
AC50 [10]: 5.62 µM (active)

Cc1ccc(-c2ccc([C@H]3[C@@H]4CN(S(=O)(=O)c5ccccc5)C[C@H]3N4)cc2)cc1
AC50 [10]: 3.66 µM (active)

COc1cccc(NC(=O)Nc2ccc3c(c2)C(=O)N(C)C[C@@H](OC)[C@H](C)CN[C@@H](C)CO3)c1
AC50 [10]: 22.8 µM (active)

CSc1ccc2c(c1)N(CCCN(C)C)c1ccccc1S2
AC50 (Cytochrome P450 1A2): 1.26 µM (inconclusive)
